Test results as given in patent US20120107916A1, “METHODS AND COMPOSITIONS FOR AFFECTING THE DIFFERENTIATION OF CLOSTRIDIA IN CULTURE” (priority 2009, published 2012).

Test system: C. beijerinckii NCIMB 8052
Assay: Growth (optical density at 600 nm) of sequential batch cultures
Type: cell-based, Clostridium beijerinckii
Description: Bacterial strains and media. Clostridium acetobutylicum ATCC 824 and C. beijerinckii NCIMB 8052 are available from several commercial microbial culture collections including the American Type Culture Collection (ATCC), Manassas, Va., USA. The strains were grown at 30° C. or 37° C. in YE broth, which contained, per liter: 5.0 g yeast extract, 2.5 g casamino acids, 1.0 g L-asparagine, 0.5 g cysteine.HCl, 56 mg K2HPO4, 56 mg KH2PO4, 82 mg anhydrous MgSO4, 8 mg FeSO4.H2O, 6 mg MnSO4.H2O and 10 g glucose. Alternatively, strains were grown in YEPG broth, which was identical to YE expect that K2HPO4 and KH2PO4 were increased to 145 mg/L each and glucose was increased to 60 g/L. The pH of the media was adjusted to 7.2 using 45% KOH prior to sterilization by autoclaving. Media were solidified by addition of 1.5% Bacteriological Agar, Actimedia Manufacturers, Inc., Lansing, Mich. All cultures were grown in anaerobic conditions using the AnaeroPack System, Mitsubishi Gas Chemical Co., Inc., Japan, and GasPak EZ Gas Generating Sachets, Becton, Dickinson and Co., Sparks, Md. Spore stocks were kept at room temperature on agar-solidified media and were activated by suspending spores in 0.5 mL to 1.0 mL of medium followed by heating for 10 min at 80° C. before inoculation into growth medium.
Growth and pH measurements. Growth of bacterial cultures was measured spectrophotometrically using optical density at 600 nm and pH of cell-free culture supernatants was measured using a hand-held Shindengen ISFET pH Meter KS501, Shendengen Electric Manufacturing Co., Ltd., Bannockburn, Ill.
Effect of peptide SEQ ID NO:145 addition on sequential batch cultures of C. beijerinckii NCIMB 8052 grown at 30° C. Spores of C. beijerinckii NCIMB 8052 were germinated and grown overnight at 30° C. under anaerobic conditions in YEPG medium. After about 24 h of growth, […] of the culture was transferred (transfer 1) to each of four flasks that contained 10 mL of YEPG and either had no treatment or were treated with peptide SEQ ID NO:145 (see Table 8) at 1 nM, 10 nM or 50 nM. Thereafter, 75 μL of each culture was transferred, at the same time, every 24-48 h to 10 mL of fresh YEPG that contained the same peptide treatment or no treatment. Each culture was stopped after 96 hours of incubation and optical density, pH and ceric ion reactive chemicals were measured. Sequential batch culturing was continued through 6 transfers at which point all cultures appeared to be growing to the same extent (Table 12 and FIG. 4).
Effect of peptide SEQ ID NO:145 addition on sequential batch cultures of C. beijerinckii NCIMB 8052 grown at 37° C. Spores of C. beijerinckii NCIMB 8052 were germinated and grown overnight at 37° C. under anaerobic conditions in YEPG medium that either contained 50 nM of peptide SEQ ID NO:145 or no added peptide. After about 24 h of growth, 10 μL of the untreated culture was transferred (transfer 1) to each of two flasks that contained 10 mL of YEPG with either no treatment or with 50 nM peptide SEQ ID NO:145. At the same time, 10 μL of the culture that was germinated in the presence of peptide SEQ ID NO:145 was also transferred to 10 mL of YEPG that contained 50 nM of peptide SEQ ID NO:145. Thereafter, 10 μL of each culture was transferred, at the same time, every 24-48 h to 10 mL of fresh YEPG that contained the same peptide treatment or no treatment. Each culture was stopped after 72 hours of incubation and optical density, pH and ceric ion reactive chemicals were measured. Addition of peptide SEQ ID NO:145 appeared to have no effect on endpoint measurements of the growth of C. beijerinckii NCIMB 8052 after germination or during sequential transfers of cultures at 37° C. (Table 18 and FIG. 10). All three cultures stopped growing at the second transfer.

IRLIT (Derived from Clostridium beijerinckii SEQ ID NO: 141) [Peptide SEQ ID NO:145, pentapeptide from C. beijerinckii NCIMB 8052 locus Cbei_1065; chemically synthesized putative autoinducing peptide]
Optical density at 600 nm of culture broths (1 nM peptide, transfer 1, 96 h, 30° C.): 2.086 | Optical density at 600 nm of culture broths (1 nM peptide, transfer 2, 96 h, 30° C.): 2.086 | Optical density at 600 nm of culture broths (1 nM peptide, transfer 3, 96 h, 30° C.): 2.106 | Optical density at 600 nm of culture broths (1 nM peptide, transfer 4, 96 h, 30° C.): 2.115 | Optical density at 600 nm of culture broths (1 nM peptide, transfer 5, 96 h, 30° C.): 2.090 | Optical density at 600 nm of culture broths (1 nM peptide, transfer 6, 96 h, 30° C.): 2.075 | Optical density at 600 nm of culture broths (10 nM peptide, transfer 1, 96 h, 30° C.): 2.080 | Optical density at 600 nm of culture broths (10 nM peptide, transfer 2, 96 h, 30° C.): 2.093 | Optical density at 600 nm of culture broths (10 nM peptide, transfer 3, 96 h, 30° C.): 2.078 | Optical density at 600 nm of culture broths (10 nM peptide, transfer 4, 96 h, 30° C.): 2.108 | Optical density at 600 nm of culture broths (10 nM peptide, transfer 5, 96 h, 30° C.): 2.069 | Optical density at 600 nm of culture broths (10 nM peptide, transfer 6, 96 h, 30° C.): 2.062 | Optical density at 600 nm of culture broths (50 nM peptide added after germination, transfer 1, 72 h, 37° C.): 1.313 | Optical density at 600 nm of culture broths (50 nM peptide added after germination, transfer 2, 72 h, 37° C.): 0.011 | Effect on endpoint measurements of growth after germination or during sequential transfers (50 nM peptide, 37° C.): no effect | Effect on germination and growth (visual observations through the course of growth) (50 nM peptide, 37° C.): repressive effect | Optical density at 600 nm of culture broths (50 nM peptide, transfer 1, 96 h, 30° C.): 2.102 | Optical density at 600 nm of culture broths (50 nM peptide, transfer 2, 96 h, 30° C.): 2.023 | Optical density at 600 nm of culture broths (50 nM peptide, transfer 3, 96 h, 30° C.): 1.936 | Optical density at 600 nm of culture broths (50 nM peptide, transfer 4, 96 h, 30° C.): 2.061 | Optical density at 600 nm of culture broths (50 nM peptide, transfer 5, 96 h, 30° C.): 2.120 | Optical density at 600 nm of culture broths (50 nM peptide, transfer 6, 96 h, 30° C.): 2.046 | Growth of treated cultures during incubation (data not shown) (1-50 nM peptide, 96 h, 30° C.): slow the growth of the treated cultures during 96 h of incubation in a dose dependent manner | Optical density at 600 nm of culture broths (50-50: germinated and transferred in 50 nM peptide, transfer 1, 72 h, 37° C.): 1.420 | Optical density at 600 nm of culture broths (50-50: germinated and transferred in 50 nM peptide, transfer 2, 72 h, 37° C.): 0.011 | Optical density at 600 nm of culture broths (50-50: spores germinated in 50 nM peptide, transfer 0 (germinated culture), 72 h, 37° C.): 1.158 | Number of times that cultures could be transferred in comparison with an untreated culture (through six culture transfers, 30° C.): did not affect
